Test results published in US20110028758A1, “Trans-cinnamic acid derivative, its preparation mathod and the use” (priority 2007, published 2011).
Converted amounts (≈) assume the structure as drawn. “Also recorded” adds a separate entry of the source.

Tests used:
[1] = Description: The 180 tumor-bearing mice are divided into 18 groups by the weigh of the mice, wherein each group has 10 mice (half male and half female). The drug delivery methods of each group are shown in Table 3 to illustrate eighteen groups of mice drug delivery situation.
Group 2 is the cyclophosphamide (CTX) group, and the mice of group 2 are only given the cyclophosphamide in the intraperitoneal of the mice on the second day of the tumor-bearing.
Group 3 to 18 groups are given the four compounds respectively, wherein the groups delivered 25 mg/kg drug are tail vein low-dose group, wherein the groups delivered 50 mg/kg drugs are the tail vein medium-dose group, wherein the groups delivered 100 mg/kg drugs are the tail vein high-dose group, wherein the groups delivered 200 mg/kg drugs are the oral enteral group. These mice from group 3 to 18 start the drug delivery on the second day of the tumor-bearing, and delivered once a day for 10 sequent days.
After the drug delivery, weight the mice weight, then execute the mice, and then weight the spleen and thymus weight by electronic weighting scale respectively. The spleen index and thymus index are the weight (mg) of mice spleen, thymus of each group/mice weight (g).

[2] = Solubility of compounds in solvents (Table 1); type: physicochemical
[3] = single tail vein administration 350 mg/kg; for death / survival in acute toxicity test: 14 days observation, 350 mg/kg
Description: After the drug delivery, continuously observe the mice responses for 4 hours; after all, observe the mice twice a day (one is in the morning, and the other is in the afternoon) for 14 days, wherein the observation includes the appearance, behavior, secretions, excreta of the mice etc., and recording all the death situation, poisoning symptoms, the starting time and ending time of toxic reactions of the mice, severity, duration time of toxic, and to see if it is reversible reaction etc., sent it to the pathology examination if necessary, weight the mice before and after the drug delivered day of 3, 7, 10, and 14 days. After finishing the observation process, execute all of the mice, and anatomize the dead bodies of mice.

[4] = test system: human hepatoma BEL-7402 cells; experiment: MTT anti-tumor test in vitro, BEL-7402; type: cell-based; details: Homo sapiens, Bel-7402, 48 h, Bel- (BEL-7402)
Description: A complete culture medium is used for diluting the above original solution into corresponding concentrations for later use.
Human cervical carcinoma Hela cells, human hepatoma BEL-7402 cells, mucinous Human epidermoid A549 lung cancer cells, human breast cancer MCF-7/S cells, human glioma U251 cells, and human normal embryonic kidney HEK-293 cells are purchased from USA, American Type Culture Collection (ATCC). All the tumor cells are used the DMEM medium (containing 10% FBS, 100 U/ml penicillin and 100 μg/ml streptomycin) for culturing and subculturing, and HEK-293 cells are using RPMI1640 medium (10% FBS, 100 U/ml penicillin, and 100 μg/ml streptomycin) for culturing and subculturing, wherein the culture condition is in a 5% CO2 incubator at 37° C.
Subculture six kinds of cells, which has a logarithmic growing period, adherent rate about 80%, and in good condition, such as human cervical carcinoma Hela cells, human hepatoma BEL-7402 cells, mucinous Human epidermoid A549 lung cancer cells, human breast cancer MCF-7/S cells, human glioma U251 cells, and human normal embryonic kidney HEK-293 cells. Discard the culture medium, rinse 1-2 times with PBS to remove serum, add 1 ml 0.25% Trypsin-0.01% EDTA (37° C. incubation) to digest for 1-2 minutes, add FBS culture medium to terminate the above digestion, centrifuge at a speed below 800 r/min for 2-3 minutes and discard the supernatant, re-suspended cells in 10% FBS medium, tack the cell suspension liquid for cell counting, adjust the density of the above liquid to 1×10^5/ml, then inoculate to a 96-holes plates (100 μl/hole), and then incubate in 5% CO2 incubator at 37° C. overnight. The next day add above cells to different concentrations of I-a, I-b, I-c and I-d, 100 μl/hole (its final concentration is respectively 30, 60, 120, 240, 480 μg/ml); meanwhile, set up the blank control group (0 μM), and establish 3 holes. Continuing the cultural process, discard the culture medium after 48 hours that the drug has been effected, add 100 μl PBS of 0.5 mg/ml MTT (PH 7.2) into each holes, after 4 hours culture, remove the culture medium by adherent cells express flipping method, add 100 μl of DMSO to each holes, oscillate it by micro-oscillation device for 5 minutes, and measure the OD value at 490 nm wavelength. Repeat the above experiment three times to get an average value. Calculate the inhibition rate (IR %) of the tumor cell proliferation in vitro from different concentrations of I-a, I-b, I-c, I-d by the following formula:
IR %=(1−ODsampale/ODcontrol)×100%
Use SPSS11.5 software to calculate the half inhibitory concentration IC50 of I-a, I-b, I-c and I-d. The results are shown in Table 2 to illustrate IC50 values (unit: μg/ml) of the four compounds.

[5] = average of three experiments ± SD

SMILES	effect near the tail vein of the mice and its surrounding tissue ([1]; mouse, in vivo)	splenomegaly of the tumor-bearing mice ([1]; mouse, in vivo)	Solubility ([2]; solvent 0.1% NaOH)	Solubility ([2]; solvent Acetone)	Solubility ([2]; solvent Chloroform)	Solubility ([2]; solvent DMSO)	Solubility ([2]; solvent Ethanol)	Solubility ([2]; solvent Methanol)	drug reaction after administration [3]	death / survival in acute toxicity test [3]	IC50 [4, 5]	IC50 ([4]; experiment 1)	IC50 ([4]; experiment 2)	IC50 ([4]; experiment 3)	death during drug delivery ([1]; high-dose group, tail vein 100 mg/kg, 10 days)
COc1ccc(/C=C/C(=O)O)c(OC)c1CC=C(C)C [I-c, (E)-2,4-dimethoxy-3-isopentenyl-cinnamic acid]	irritation or corrosive	can cause the splenomegaly	Soluble	Dissolved	Dissolved	Soluble	Dissolved	Soluble	abnormally excited at first, and then become in an inhibit state	All the mice are survived; also recorded: no toxic deaths	313 ± 11.7 µg/mL (≈ 1130 µM)	315 µg/mL (≈ 1140 µM)	300 µg/mL (≈ 1090 µM)	323 µg/mL (≈ 1170 µM)	–
COc1ccc(/C=C/C(=O)O)c(O)c1CC=C(C)C [I-a, (E)-2-hydroxy-4-methoxy-3-isopentenyl-cinnamic acid]	–	no affect	Soluble	Soluble	Dissolved	Soluble	Soluble	Soluble	abnormally excited at first, and then become in an inhibit state	All the mice are survived; also recorded: no toxic deaths	249 ± 17.9 µg/mL (≈ 950 µM)	–	237 µg/mL (≈ 904 µM)	269 µg/mL (≈ 1030 µM)	does not have any death
COc1ccc(/C=C\C(=O)O)c(OC)c1CC=C(C)C [I-b, (Z)-2,4-dimethoxy-3-isopentenyl-cinnamic acid]	–	–	Soluble	Dissolved	Dissolved	Soluble	Dissolved	Soluble	abnormally excited at first, and then become in an inhibit state	All the mice are survived; also recorded: no toxic deaths	346 ± 10.1 µg/mL (≈ 1250 µM)	343 µg/mL (≈ 1240 µM)	357 µg/mL (≈ 1290 µM)	338 µg/mL (≈ 1220 µM)	–
